# Source: patent publication US12246036B2, “Composition for use in the prevention and in the treatment of iron deficiency” (PHARMANUTRA S.P.A., priority 2017, dated 2025)
# How the values were obtained:
# [1] = Dilution test of iron compositions in sterile PBS and cell culture medium (dissolution properties); format: physicochemical; settings: for appearance after initial ten-fold dilution: 3 mg/ml of iron, PBS and medium; for appearance after further ten-fold dilution: 300 micrograms/ml of iron
# Protocol: (§1) The iron content of the compounds (with the exception of the vitamin D and the sucrosomial matrix) was 30 mg/ml. A 1:100 dilution was performed for all of the compounds in sterile PBS in order to obtain an iron concentration of 300 micrograms/ml. […] The final iron concentration used in the experiments has been described elsewhere (Barisani et al. “Iron overload and gene expression in HepG2 cells: analysis by differential display” FEBS Letters 2000, 469, 208-212). The compounds (initial dilution of […]) were diluted in an incomplete FBS-free medium (RPMI 1640 for the U937 cells, EMEM for the HepG2 cells) with a dilution factor of 1:6 for a final iron concentration of 50 micrograms/ml. A test was conducted to assess the effect of the compounds on the cell cultures: induced FlepG2 and U937 were seeded a with a cell density of 650,000 cells/ml in 6 wells (final volume 1.5 ml/well). After 24 hours the medium was replaced with a new FBS-free (incomplete) one containing 50 µg/ml of iron and after 24 hours the cells were macroscopically checked (visual inspection using a microscope).
# Before the cells were treated with the selected compounds, they were tested to assess their dissolution properties. The compounds were diluted in sterile PBS and in the standard cell culture medium (EMEM).
# U937 cells = settings: 50 micrograms/ml of iron, 24 hours
# Protocol: as §1
# hepcidin = test: Hepcidin produced by LPS-stimulated HepG2 cells in supernatant (ELISA); format: cell-based, human; settings: LPS-stimulated HepG2, 18 hours of treatment; combination compared to vitamin D alone or sucrosomial iron alone (FIG. 2)
# Protocol: The HepG2 cells were seeded in 6 wells at a concentration of 650,000 cells/ml (1.5 ml/well). The plates were incubated for 24 hours at 37° C. and 5% CO2 first. Afterwards, the 24-hour medium was replaced with an incomplete EMEM without FEM, containing 40 ng/ml of LPS. A control well was prepared with an LPS-FBS-free incomplete medium. After 20 hours of incubation at 37° C. and 5% CO2, the medium was replaced with the iron treatment solutions (medium containing 50 µg/ml of iron). In the control well, the medium was replaced by an incomplete FBS-free EMEM medium. Another control well without iron was prepared, replacing a container containing LPS with a fresh incomplete FBS-free medium. After 6, 18 and 24 ore, the hours, the supernatants were collected from the wells, centrifugated for 10 minutes at 1000 g, transferred into a new tube and stored a −20° C. for the analysis of hepcidin and CRP. The cells of each well collected were detached using trypsin and counted using Trypan blue with a Bürker counting chamber.
Compound,appearance after initial ten-fold dilution [1],appearance after further ten-fold dilution [1],appearance of the compounds before dilution in PBS / EMEM ([1]; compounds as supplied (30 mg/ml iron)),effect on the cytoplasmic volume of the cells (U937 cells),hepcidin level/expression in supernatants of HepG2 cells (hepcidin)
O=P([O-])([O-])OP(=O)([O-])[O-].O=P([O-])([O-])OP(=O)([O-])[O-].O=P([O-])([O-])OP(=O)([O-])[O-].[Fe+3].[Fe+3].[Fe+3].[Fe+3] [iron pyrophosphate],changed the colour (pH) of the medium from red to yellow,no evident colour change,,,
O=S(=O)([O-])[O-].[Fe+2] [iron sulphate],changed the colour (pH) of the medium from red to yellow,moderate colour change,separated in two phases,loss of volume,
vitamin D,no problems,,,,higher
